Where two headings read alike, the source gives them in different places.

One data set in a line: MTS viability. In kind it is cell-based. Particulars: human (JMAR, MDA-1986, SKMEL-28, MRC-5) and mouse (B16F10).
Data set [1] relates to HNSCC (JMAR and MDA-1986), melanoma (B16F10 and SKMEL-28), and normal fetal fibroblast (MRC-5) cells. Nature of the data set: MTS viability. In kind it is cell-based.
[2] abbreviates: Cytotoxicity IC50 (inactive for all cell lines used), all cell lines used (B16F10, SKMEL-28, JMAR, MDA-1986, MRC-5).

As to `CC1=C(CO)C(=O)O[C@@H]([C@@H](C)[C@H]2CC[C@H]3[C@@H]4C[C@H]5O[C@]56[C@@H](O)CCC(=O)[C@]6(C)[C@H]4CC[C@]23C)C1` [Compound 20, 2,3-dihydrowithaferin A], in “MTS viability” (setting [2]), the IC50 – broadly, the point on the concentration scale where inhibition reaches its midpoint – is above 10 µM. Turning to `CC1=C(CO[C@@H]2O[C@H](CO)[C@@H](O)[C@H](O)[C@H]2O)C(=O)O[C@@H]([C@@H](C)[C@H]2CC[C@H]3[C@@H]4C[C@H]5O[C@]56[C@@H](O)C=CC(=O)[C@]6(C)[C@H]4CC[C@]23C)C1` [Compound 15, 27-O-β-D-glucopyranosyl-withaferin A], in data set [1] (MTS assay, comparison in words), the “cytotoxicity relative to the aglycone withaferin A (16)” value is “less cytotoxicity”.

For the compound `CC1=C(CO)C(=O)O[C@@H]([C@@H](C)[C@H]2CC[C@H]3[C@@H]4C[C@@H]5O[C@@H]6CC(=O)[C@](C)([C@H]4CC[C@]23C)[C@@]5(O)[C@H]6O)C1` [Compound 21, 3α,6α-epoxy-4β,5β,27-trihydroxy-1-oxowitha-24-enolide], in the data set “MTS viability” (setting [2]), the IC50 is above 10 µM. `CC1=C(CO)C(=O)O[C@@H]([C@@H](C)[C@H]2CC[C@H]3[C@@H]4C[C@H]5O[C@]56[C@@H](O)C=CC(=O)[C@]6(CO)[C@H]4CC[C@]23C)C1` [Compound 1, 19-hydroxywithaferin A] displayed an IC50 in the data set “MTS viability” of 0.067 to 9.3 µM. For the compound `CC1=C(CO[C@@H]2O[C@H](CO)[C@@H](O[C@@H]3O[C@@H](C)[C@H](O)[C@@H](O)[C@H]3O)[C@H](O)[C@H]2O)C(=O)O[C@@H]([C@@H](C)[C@H]2CC[C@H]3[C@@H]4C[C@H]5O[C@]56[C@@H](O)C=CC(=O)[C@]6(C)[C@H]4CC[C@]23C)C1` [Compound 8, 27-O-[α-L-rhamnopyranosyl(1→4)]-β-D-glucopyranosyl-withaferin A], the IC50 in “MTS viability” (cytotoxicity IC50) lay within 0.067 to 9.3 µM. Further, the “cytotoxicity relative to the aglycone withaferin A (16)” value in data set [1] was “less cytotoxicity”. With `CC1=C(C)C(=O)O[C@@H]([C@@H](C)[C@H]2CC[C@H]3[C@@H]4C[C@H]5O[C@]56[C@@H](O)C=CC(=O)[C@]6(CO)[C@H]4CC[C@]23C)C1` [Compound 2, 27-deoxy-19-hydroxywithaferin A], the IC50 in “MTS viability” (cytotoxicity IC50) lay within 0.067 to 9.3 µM. `CO[C@H]1CC(=O)[C@]2(C)[C@H]3CC[C@]4(C)[C@@H]([C@H](C)[C@H]5CC(C)=C(CO)C(=O)O5)CC[C@H]4[C@@H]3C[C@H]3O[C@]32[C@H]1O` [Compound 17, 2,3-dihydro-3β-methoxywithaferin A] registered an IC50 in the data set “MTS viability” (Cytotoxicity IC50 (inactive for all cell lines used)) above 10 µM. For the compound `CC1=C(CO)C(=O)O[C@@H]([C@@H](C)[C@H]2CC[C@H]3[C@@H]4C[C@H]5O[C@]56[C@@H](O)[C@@H](O)CC(=O)[C@]6(C)[C@H]4CC[C@]23C)C1` [Compound 18, viscosalactone B], the IC50 in the data set “MTS viability” (setting [2]) is above 10 µM. `CC1=C(CO)C(=O)O[C@@H]([C@@H](C)[C@H]2CC[C@H]3[C@@H]4CC=C5C=CC(=O)[C@]5(C)[C@H]4CC[C@]23C)C1` [Compound 6, A-nor-27-hydroxy-1-oxowitha-2,5,24-trienolide] registered an IC50 in “MTS viability” above 10 µM. In turn, `CC1=C(CO)C(=O)O[C@@H]([C@@H](C)[C@H]2CC[C@H]3[C@@H]4C[C@H]5O[C@]56[C@@H](O)[C@@H](OS(=O)(=O)O)CC(=O)[C@]6(CO)[C@H]4CC[C@]23C)C1` [Compound 7, 2,3-dihydro-19-hydroxy-3β-O-sulfate-withaferin A] returned an IC50 in “MTS viability” (cytotoxicity IC50) of 0.067 to 9.3 µM.
